In patent US20250017213A1, “COMPOSITION FOR MODULATING MICROBIAL GROWTH” (DSM AUSTRIA GMBH, priority 2021, published 2025):

Test system: Lactobacillus reuteri F 275 (DSMZ 20016)
Test: microbe, parasite or virus in culture
Conditions: Limosilactobacillus reuteri

O=CO [formic, formic acid]
inhibition at […] (DSMZ20016, NCI-H125, 4 h): 23.4%
inhibition at […] (DSMZ20016, NCI-H125, 5 h): 38.2%
inhibition at […] (DSMZ20016, NCI-H125, 6 h): 39.8%
inhibition at […] (DSMZ20016, NCI-H125, 7 h): 39.7%
inhibition at […] (DSMZ20016, NCI-H125, 10 h): 39.5%
